Laboratory results from ChEMBL document CHEMBL5727003, “Therapeutic inhibitory compounds” (2019).

Biological target: Plasma kallikrein (Homo sapiens, UniProt P03952)
Assay: In Vitro Enzyme Inhibition: A 10 mM solution of the test compound was made in DMSO. This solution was serially diluted 1:5 in DMSO to yield 2000, 400, 80, 16, 3.2, 0.64, 0.128, 0.0256 and 0.00512 μM compound test solutions. A control tube containing only DMSO is included. 16 μL of each compound test solution was combined with 384 μL of assay buffer (50 mM Tris-HCl pH 7.5, 150 mM NaCl, 0.01% Triton X-100) to yield a “4× test compound buffer stock”.Separately, a 40 nM solution of human Plasma Kallikrein (Abcam) and a 93.6 μM solution Pro-Phe-Arg-AMC (Bachem) were made using assay buffer. These solutions are hereby referred to as 4×hPK and 2×PFR-AMC, respectively.60 μL of each 4× test compound buffer stock was combined with 60 μL of 4×hPK to yield 120 μL of “2× test compound buffer stock/2×hPK”. 50 μL was removed from this mixture and placed into duplicate wells on a Microfluor 1Black U-bottom microtiter plate (Thermo Scientific). This plate was incubated for 5 minutes at 37° C. To each well, 50 μL of pre-warmed 2×PFR-AMC was added to start the enzymatic reaction. Cleavage of PFR-AMC was monitored in a Biotek Synergy H4 reader set at 37° C. Readings are taken every 43 seconds for 1 hour. The highest mean velocity over 20 reads (˜15 minutes) is used to calculate the IC50. The IC50 is calculated using the Gen5 (Biotek Instruments).

Sequence of Plasma kallikrein (P03952 20-390 limits assumed): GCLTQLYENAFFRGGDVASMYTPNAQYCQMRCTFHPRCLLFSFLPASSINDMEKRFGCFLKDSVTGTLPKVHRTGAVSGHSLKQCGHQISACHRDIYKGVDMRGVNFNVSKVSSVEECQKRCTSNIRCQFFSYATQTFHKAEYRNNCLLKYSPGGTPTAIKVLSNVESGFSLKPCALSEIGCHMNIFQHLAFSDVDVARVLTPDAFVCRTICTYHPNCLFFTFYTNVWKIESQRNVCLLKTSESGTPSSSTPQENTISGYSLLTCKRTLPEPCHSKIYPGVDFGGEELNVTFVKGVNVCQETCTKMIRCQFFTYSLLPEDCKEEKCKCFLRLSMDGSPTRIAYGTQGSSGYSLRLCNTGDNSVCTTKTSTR
Sequence of Plasma kallikrein (P03952 391-638 limits assumed): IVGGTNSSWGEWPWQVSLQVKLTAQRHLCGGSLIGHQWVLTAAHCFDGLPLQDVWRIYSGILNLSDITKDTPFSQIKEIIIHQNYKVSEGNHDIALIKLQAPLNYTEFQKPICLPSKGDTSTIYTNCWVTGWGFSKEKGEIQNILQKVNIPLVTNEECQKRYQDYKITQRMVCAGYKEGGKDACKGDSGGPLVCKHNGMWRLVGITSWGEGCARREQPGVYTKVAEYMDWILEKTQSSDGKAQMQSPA

Structure (SMILES): Cc1cc(N)nc(C)c1CNC(=O)c1cn(Cc2ccc3ncc(Cl)cc3c2)c(CO)n1
- IC50: < 0.1 µM

Structure (SMILES): Cc1cc(N)nc(C)c1CNC(=O)c1cn(Cc2ccc3ncc(Cl)cc3c2)c2cccnc12
- IC50: < 0.1 µM

Structure (SMILES): Cc1cc(N)nc(C)c1CNC(=O)c1nn(Cc2ccc3ncc(Cl)cc3c2)nc1C(F)(F)F
- IC50: < 0.1 µM

Structure (SMILES): Cc1cc(N)nc(C)c1CNC(=O)c1cc(C(F)(F)F)n(Cc2ccc3ncc(Cl)cc3c2)n1
- IC50: 1 to 10 µM

Structure (SMILES): Cc1cc(N)nc(C)c1CNC(=O)c1ccn(Cc2ccc3ncc(Cl)cc3c2)n1
- IC50: < 0.1 µM
